Consider three molecules from patent US20250332198A1, “TARGETED ELIMINATION OF SENESCENT CELLS BY GAMMA-DELTA T CELLS” (SENS RESEARCH FOUNDATION, priority 2022, published 2025).

In one data set the test system is platelet. The following applies: risk of causing thrombocytopenia; cited from earlier work.
Another data set relates to macrophages. The following applies: as reported; cited from earlier work.
For data set [1], the target named is T1, 3-hydroxy-3-methylglutaryl-CoA reductase (HMGCR) (Homo sapiens, UniProt P04035).
T1 construct: endogenous in cells; host or cells: senescent cells (SC)
T1 sequence (P04035 1-888): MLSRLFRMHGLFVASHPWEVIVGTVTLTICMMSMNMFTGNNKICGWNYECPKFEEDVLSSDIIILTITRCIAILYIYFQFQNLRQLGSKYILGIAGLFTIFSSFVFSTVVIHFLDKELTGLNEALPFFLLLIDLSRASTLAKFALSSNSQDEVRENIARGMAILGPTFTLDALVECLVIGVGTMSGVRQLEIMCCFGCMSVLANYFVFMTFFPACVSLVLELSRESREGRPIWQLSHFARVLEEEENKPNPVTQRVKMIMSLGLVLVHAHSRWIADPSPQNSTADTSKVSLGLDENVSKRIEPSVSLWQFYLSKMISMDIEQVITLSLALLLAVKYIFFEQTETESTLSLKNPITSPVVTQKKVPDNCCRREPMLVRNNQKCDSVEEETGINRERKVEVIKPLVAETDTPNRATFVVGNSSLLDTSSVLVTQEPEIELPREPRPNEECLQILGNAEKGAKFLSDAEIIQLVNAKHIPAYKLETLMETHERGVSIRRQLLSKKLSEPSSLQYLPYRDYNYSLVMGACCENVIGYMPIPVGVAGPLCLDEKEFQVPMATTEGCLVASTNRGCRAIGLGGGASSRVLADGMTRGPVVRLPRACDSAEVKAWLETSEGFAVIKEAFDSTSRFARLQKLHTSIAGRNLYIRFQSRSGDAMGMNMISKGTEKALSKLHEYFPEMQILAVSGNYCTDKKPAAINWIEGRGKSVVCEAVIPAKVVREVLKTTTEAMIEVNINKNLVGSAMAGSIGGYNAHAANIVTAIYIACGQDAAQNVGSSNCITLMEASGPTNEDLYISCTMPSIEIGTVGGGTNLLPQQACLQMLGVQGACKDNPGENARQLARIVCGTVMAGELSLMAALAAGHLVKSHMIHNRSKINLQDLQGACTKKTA
The data set can be described thus: Mevalonate pathway inhibition in SC, effect on cytotoxicity by Vδ2 T cells. In kind it is cell-based. To be noted: SC treated with the HMGCR inhibitor. The source says:
NKG2D recognizes target cells based on their surface expression of ligands such as MICA. […] Briefly, phosphoantigens such as IPP (an intermediate metabolite of mevalonate pathway) bind to the intracellular domain of BTN3A, leading to a conformational change in the extracellular domain that is recognized by γδTCR. […] To determine the role of mevalonate pathway, we inhibited the rate-limiting enzyme 3-hydroxy-3-methylglutaryl-CoA reductase (HMGCR) with mevastain in SC and tested the effect on cytotoxicity by Vδ2 T cells.

In the case of `CC1(C)CCC(c2ccc(Cl)cc2)=C(CN2CCN(c3ccc(C(=O)NS(=O)(=O)c4ccc(N[C@H](CCN5CCOCC5)CSc5ccccc5)c(S(=O)(=O)C(F)(F)F)c4)cc3)CC2)C1` [ABT263, navitoclax], the platelet toxicity entry in the data set on platelet was “dose-limiting platelet toxicity”. Also, the effect on macrophages result in the data set with macrophages is “destroy macrophages”.
As to `CC[C@H](C)C(=O)O[C@H]1CCC=C2C=C[C@H](C)[C@H](CC[C@@H]3C[C@@H](O)CC(=O)O3)[C@H]21` [mevastatin], the “effect on Vδ2 T cell-mediated cytotoxicity toward SC” value is recorded as “resistant to gamma delta T cells” in data set [1] and “significantly reduced Vδ2 T cell-mediated cytotoxicity” in data set [1] (listed as mevastain).
For the molecule `O=c1c(O)c(-c2ccc(O)c(O)c2)oc2cc(O)ccc12` [fisetin], the effect on macrophages result with macrophages is recorded as “destroy macrophages”.
